Measured values: ChEMBL document CHEMBL4190229, “Growth Inhibition of Colon Cancer and Melanoma Cells by Versiol Derivatives from a Paraconiothyrium Species” (J Nat Prod, 2017)

Assays:
[1] = tested on: Panel NCI-60 (60 carcinoma cell lines); assay: Antiproliferative activity against human NCI60 cells at 10 uM after 48 hrs by sulforhodamine B assay relative to control; assay type: functional
COLO 205 = assay: Antiproliferative activity against human COLO205 cells after 48 hrs by XTT assay; settings: COLO 205, 48 h
KM12 = assay: Antiproliferative activity against human KM12 cells after 48 hrs by XTT assay; settings: KM12, 48 h
[2] = tested on: Panel NCI-60 (60 carcinoma cell lines); assay: Antiproliferative activity against human NCI60 cells after 48 hrs by sulforhodamine B assay; assay type: functional, cell-based

Row | IC50 (COLO 205) [µM] | SMILES | Activity [1] [%] | IC50 (KM12) [µM] | Activity [2]
1 | 12.5 | C/C(=C\C=C\[C@H](C)CC(=O)O)[C@H](O)[C@H](C)C(=O)O[C@H]1C[C@@H](C)[C@@H](O)c2ccc(C)c(C)c21 | 89 | 6.5 | 
2 | < 1.25 | CC(/C=C/C=C(\C)[C@H](O)[C@H](C)C(=O)O[C@H]1C[C@H](C)C=C2C=C[C@@]3(C)O[C@@H](O)CC(=O)[C@]3(C)[C@H]21)=C\C=C\C(=O)O | -3 | < 1.25 | 
3 | < 1.25 | CC(=O)CC/C=C(\C)[C@H](O)[C@H](C)C(=O)O[C@H]1C[C@H](C)C=C2C=C[C@@]3(C)O[C@@H](O)CC(=O)[C@]3(C)[C@H]21 | -34 | < 1.25 | Dose-dependent effect
